This is an account of results in PubChem BioAssay AID179 (DTP/NCI, 2004).

SMILES strings stand for the structures. Calls of active or inactive are those of the source.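 The calls were made as follows: active = compounds giving half or more protection of infected cells from virus-caused growth loss, again on retest; inactive = the rest.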 Where a SMILES comes first, the peptide text is derived from it.

This assay has as its system CEM cells HIV-1 protection, formazan growth assay. The assay is described as follows: NCI AIDS Antiviral Assay. The settings on record: for IC50: measured here: growth of uninfected CEM cells. A digest of the protocol:
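Human CEM cells, uninfected and HIV-1-infected, received five drug concentrations, and growth was read by soluble formazan assay. Compounds giving at least 50% protection were retested; reproducible 100% protection defined confirmed active.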

The EC50 is the concentration giving half of the maximal effect. Broadly, the IC50 is the concentration that gives 50% inhibition. A lower IC50 goes with higher potency. Consider `COc1ccc(CN2COc3c(ccc4ccccc34)C2)cc1`, for which the EC50 is more than 200 µM and the IC50 came to 10.2 µM.
As for `CC12Cc3ccccc3CC1OCN1CN2COC2Cc3ccccc3CC21C` (stereo unspecified), the EC50 is more than 13.2 µM and the IC50 was more than 13.2 µM.
Regarding `CC(C)(C)OC(=O)C1=C(O)C(C(=O)OC(C)(C)C)C23CCCCC12C(C(=O)OC(C)(C)C)C(O)=C3C(=O)OC(C)(C)C` (stereo unspecified), the result was inactive.
Regarding `O=S(=O)(O)CC(O)CNC(CO)(CO)CO` (stereo unspecified), the EC50 was more than 200 µM and the IC50 was more than 200 µM.
Regarding `Cc1ccc(NC(=O)c2cc3ccccc3c(N=Nc3cc(S(=O)(=O)O)ccc3O)c2O)c(C)c1`, the EC50 was 0.832 µM and the IC50 was 4.27 µM.
For `Nc1c(Cl)ncnc1NCC1(CO)CCC1` the same measures were more than 200 µM and 158 µM.
For `O=[N+]([O-])c1ccc(NS(=O)(=O)C(F)(F)F)cc1` the same measures were more than 200 µM and more than 200 µM.
For `O=C(O)C1CCC(c2ccc(Oc3ccccc3)cc2)=N1` (stereo unspecified) the same measures were more than 200 µM and more than 200 µM.
For the compound `O=C(Nc1nc2ncn(CC(COc3ccccc3)OC(=O)c3ccccc3)c2c(=O)[nH]1)c1ccccc1` (stereo unspecified), the EC50 is more than 70.8 µM and the IC50 is more than 70.8 µM.
`CCOP(=O)(OCC)C(F)(F)Cc1cnc(C)c2c1COC(C)(C)O2`: the EC50 is more than 200 µM and the half-inhibitory concentration (IC50) was more than 200 µM.
Take `CC(C)CC(NC(=O)C(Cc1ccc(O)cc1)NC(=O)C(CO)NC(=O)C(C)NC(=O)C(CO)NC(=O)C(CCC(=O)O)NC(=O)C(NC(=O)C(N)CCC(=O)O)C(C)C)C(=O)NC(CCCN=C(N)N)C(=O)NC(CCCCN)C(=O)O` (stereo unspecified) (H-EVESASYLRK-OH; configuration not given here): the result was inactive.
Regarding `C=CCOCCC(CC=C)C(=O)CC(=O)OC` (stereo unspecified), the EC50 is more than 251 µM and the IC50 turned out to be 195 µM.
`COc1cc(C2C(C(=O)NCc3ccccc3)=C(C)NC(C)=C2C(=O)NCc2ccccc2)ccc1O`: the EC50 is more than 72.4 µM and the half-maximal inhibitory concentration (IC50) was determined as 49 µM.
On to `C=CCn1nnc2ccccc2c1=O`, for which the EC50 was more than 692 µM and the concentration for half-maximal inhibition (IC50) is more than 692 µM.
`CN(C)Nc1cc(=O)[nH]c(=O)[nH]1`: the EC50 was more than 200 µM and the IC50 is more than 200 µM.
With `C#CC(C)(C)Oc1ccc2c(=O)c(-c3ccc(OC)cc3)coc2c1`, the EC50 is more than 200 µM and the IC50 was determined as 20 µM.
For the compound `CC1OC(OC2C(CO)OC(O[C@H]3CC[C@@]4(C)C(=CC[C@H]5[C@@H]6C[C@@H]7O[C@]8(CC[C@@H](C)CN8)[C@@H](C)[C@@H]7[C@@]6(C)CC[C@@H]54)C3)C(O)C2O)C(O)C(O)C1O` (stereo partly specified), the outcome was inactive.
On to `C=CCOc1ccc(C2c3c([nH][nH]c3=O)CC(O)(OCC)C2C(=O)OCC)cc1OC` (stereo unspecified), for which the EC50 was more than 200 µM and the IC50 was more than 200 µM.
Take `Cc1ccc2c(c1)CC1(Cc3cc(C)ccc3C1=O)C2=O`: the EC50 is more than 200 µM and the IC50 was more than 200 µM.
For the compound `ClCCC[Si]12OCCN(CCO1)CCO2`, the result was inactive.
On the same count and under the same terms, for `Cn1cc(NC(=O)c2cc(NC(=O)[C@H]3CCC(N)=N3)c[nH]2)cc1C(=O)NCCC(=N)N` the value was “active”.
Consider `Oc1[nH]c(=S)[nH]c1/C=C1/C(c2ccccc2)=Nc2ccccc21`, for which the EC50 is more than 200 µM and the IC50 was found to be 9.33 µM.
For `O=C(/C(=C1\SS/C(=C(/C(=O)c2ccccc2)c2ccccc2)S1)c1ccccc1)c1ccccc1` the same measures were more than 200 µM and more than 200 µM.
For `FC(F)(F)c1cccc(COCCN2CCN(Cc3cccc(C(F)(F)F)c3)CC2)c1` the same measures were more than 200 µM and 18.2 µM.
For `c1ccc(-c2cc(-c3cccs3)c(-c3cccs3)o2)cc1`, the EC50 is more than 200 µM and the IC50 stood at 25.7 µM.
`Cc1cc2c(c(C(C)(C)C)c1)O[P+](=O)Oc1c(cc(C)cc1C(C)(C)C)C2`: the EC50 was more than 18.6 µM and the IC50 was more than 18.6 µM.
For `C/C(=N\NC(=S)NCCCCNC(=S)N/N=C(\C)c1ccccn1)c1ccccc1`, the EC50 is more than 200 µM and the IC50 came out at 1.62 µM.
For `COc1ccc2c(c1)CC1NC2Cc2ccccc21` (stereo unspecified), the result was inactive.
As to `O=C1O/C(=C(\Br)c2ccccc2)c2ccccc21`, the EC50 was more than 200 µM and the IC50 was determined as 3.63 µM.
Turning to `O=C1c2ccccc2-c2nnc3c(c21)Cc1ccccc1C3`, the EC50 was more than 200 µM and the concentration for half-maximal inhibition (IC50) was more than 200 µM.
Turning to `CN(C)c1ccc(/C=C2\Cc3ccccc3C2=O)cc1`, the EC50 was more than 14.5 µM and the IC50 is more than 14.5 µM.
Take `O=C(CCc1ccccc1)n1cccc1CO`: the EC50 was more than 200 µM and the IC50 came to 56.2 µM.
`O=C(O)C1=C(C(=O)O)N(c2ccncc2)C(c2ccco2)=CC1c1ccccc1[N+](=O)[O-]` (stereo unspecified): the EC50 was more than 200 µM and the IC50 was determined as 2.24 µM.
For `C=C1CC(C)(Cn2c(N)nc3nc[nH]c3c2=O)OC1=O` (stereo unspecified) the same measures were more than 200 µM and 117 µM.
`C[N+]1(C)CCC(C#N)(c2ccccc2)CC1`: the EC50 was more than 724 µM.
As for `CSc1nc(C(N)=O)c(NC(=O)c2ccccc2)s1`, the EC50 is more than 200 µM and the half-inhibitory concentration (IC50) was 166 µM.
In the case of `COc1cc(N(CCC#N)CCC#N)ccc1/C(N=Nc1ccc(Cl)cc1)=N/NC(=O)c1cc(Br)ccc1O`, the EC50 is more than 100 µM and the half-inhibitory concentration (IC50) is 17.4 µM.
With `C=CCCC1(CC(Sc2ccccc2)P(=O)(c2ccccc2)c2ccccc2)OCCO1` (stereo unspecified), the EC50 was more than 200 µM and the IC50 is more than 200 µM.
`O=P(NC1CCCCC1)(NC1CCCCC1)NC1CCCCC1`: the EC50 was more than 200 µM and the half-maximal inhibitory concentration (IC50) is more than 200 µM.
Turning to `O=C(Nc1nc2ccc([N+](=O)[O-])cc2s1)C(=O)C(C(=O)c1ccncc1)C1OC(=O)c2ccccc21` (stereo unspecified), the EC50 is more than 186 µM and the IC50 was found to be 102 µM.
As for `O=C(Nc1c(Cl)cc([N+](=O)[O-])cc1Cl)/C(=N\Nc1cccc(Cl)c1)c1c(O)c2ccccc2oc1=O`, the EC50 is more than 24.5 µM and the IC50 is more than 24.5 µM.
Take `CCOC(O)(NC(=O)C(C(F)(F)F)C(F)(F)F)C(F)(F)F` (stereo unspecified): the EC50 was more than 200 µM and the IC50 was more than 200 µM.
In the case of `CCCCOc1cccc(/C=N/N=C(/N)NO)c1`, the outcome was inactive.
With `ClC(Cl)(Cl)C1CCOC1n1nc2ccccc2n1` (stereo unspecified), the EC50 is more than 200 µM and the IC50 is more than 200 µM.
Consider `CN(C)c1ccc(/C=C(\NC(=O)c2ccccc2)c2nn(C)c(=O)o2)cc1`, for which the EC50 was more than 100 µM and the IC50 is more than 100 µM.
Regarding `CCC1(CCCC=C(c2cc(Cl)c(OC)c(CO)c2)c2cc(Cl)c(OC)c(CO)c2)OCCO1`, the EC50 is more than 200 µM and the 50% inhibitory concentration (IC50) stood at 11.7 µM.
With `Nc1nc(Cl)nc2c1ncn2C1CC(O)C(CO)O1` (stereo unspecified), the EC50 is more than 631 µM and the half-maximal inhibitory concentration (IC50) was 3.09 µM.
For `CSC1=N/C(=C\c2ccc(C)cc2)C(=O)N1CN1CCCCC1` the same measures were more than 200 µM and more than 200 µM.
The compound `O=C(O)c1c(Br)c(Br)c(Br)c(Br)c1-c1c2ccc(=O)cc-2oc2cc(O)ccc12` had a half-maximal effective concentration (EC50) of more than 200 µM and an IC50 of 28.2 µM.
As for `Nc1ccc(C(=O)N/C(=C\C=C\c2ccco2)c2nc3c4c(ccc3[nH]2)C(=O)c2ccccc2C4=O)cc1`, the result was inactive.
With `COC(=O)c1c(C)cccc1/C=C1\Cc2ccc(C)c(C)c2C1=O`, the EC50 is more than 200 µM and the IC50 was more than 200 µM.
In the case of `COC(=O)CC(C(C(=O)OCc1ccccc1)C(C)O)N1C(=O)OCC1c1ccccc1` (stereo unspecified), the EC50 was more than 200 µM and the 50% inhibitory concentration (IC50) worked out at 123 µM.
Regarding `S=C(Nc1cccc2ccccc12)NN1CCCCCC1`, the EC50 was more than 17.4 µM and the half-inhibitory concentration (IC50) was more than 17.4 µM.
With `CC1C2C1C1C3NN=CC3C2n2c(=O)n(-c3ccccc3)c(=O)n21` (stereo unspecified), the EC50 is more than 200 µM and the IC50 is more than 200 µM.
As for `O=C(CCC(=O)c1ccc(Cl)cc1)NO`, the EC50 is more than 200 µM and the IC50 is 123 µM.
Consider `O=C(CC(=O)Nc1cccc(Cl)c1)NNCC(=O)Nc1nnc(-c2ccccc2)s1`, for which the EC50 is more than 22.4 µM and the IC50 is more than 22.4 µM.
As for `CCCCCCCCCCCCC/C=C/[C@H]1[C@@H](C(=O)OC)N1S(=O)c1ccc(C)cc1` (stereo partly specified), the EC50 was more than 200 µM and the IC50 turned out to be 74.1 µM.
Turning to `Cn1cnc([N+](=O)[O-])c1Sc1nc2ccccc2o1`, the EC50 was more than 26.3 µM and the IC50 is 2.75 µM.
For `Cc1ccc(C23c4ccccc4CCN2C(=O)C3N)cc1` (stereo unspecified) the same measures were more than 603 µM and 117 µM.
Regarding `C[C@@H](NC(=O)c1ccccc1SC(=O)OCC[n+]1ccccc1)C(N)=O`, the EC50 came to 2.82 µM and the IC50 was more than 200 µM.
For `Clc1ccc(/C=N/Nc2nnc3c(n2)[nH]c2ccccc23)cc1` the same measures were more than 200 µM and more than 200 µM.
On to `CC(=O)N(c1ccccc1)[Si](C)(C)C`, for which the result was inactive.
In the case of `O=C(OCc1ccccc1)N1CCNCCNCC1`, the EC50 was more than 200 µM and the IC50 was more than 200 µM.
As to `CCC(=O)Oc1ccc2c(=O)c(-c3ccc(OC)cc3)c(CC)oc2c1`, the EC50 is more than 200 µM and the IC50 was found to be 25.1 µM.
As to `COc1ccc(-c2c3nc(c(-c4ccc(OC)cc4)c4[n-]c(c(-c5ccc(OC)cc5)c5nc(c(-c6ccc(OC)cc6)c6[n-]c2c2ccccc62)-c2ccccc2-5)c2ccccc42)-c2ccccc2-3)cc1.[Zn+2]`, the EC50 was more than 50.1 µM and the IC50 was more than 50.1 µM.
In the case of `Cc1ccc(SCC(CF)OCn2cnc3c(=O)[nH]c(N)nc32)cc1` (stereo unspecified), the EC50 is more than 20 µM and the IC50 was more than 20 µM.
With `Cc1ccc2c(c1)C1(C)OC(C=CC1=O)O2` (stereo unspecified), the EC50 is more than 3.16 µM and the concentration for half-maximal inhibition (IC50) was 0.525 µM.
As to `C[C@H](C(=O)O)C(=O)NC(=O)N(Cc1ccccc1)N=O`, the result was inactive.
For `CCSC(=O)N1c2ccc(OC)cc2C=CC1C#N` (stereo unspecified), the EC50 was more than 0.692 µM and the IC50 stood at 0.0407 µM.
For `CC1=CN2C(c3ccccc3)=NON(c3ccc(C)cn3)C2C=C1` (stereo unspecified) the same measures were more than 21.4 µM and more than 21.4 µM.
Take `CCCCCCCCCCCCNC1(C)CNCCCNCCNCCCNC1`: the EC50 is more than 251 µM and the IC50 worked out at 1.41 µM.
